Legend:
TALL-104 cells = assay: Microarray gene expression analysis, TALL-104; format: cell-based, human
Description: A total of 0.5×10^6 tumor cells (HCT-116, HT-29, KM12C) were plated in a 6-well plate and allowed to adhere overnight before 24-hour treatment as indicated. 1×10^6 immune cells (NK92, TALL-104) were plated and treated with elraglusib as indicated for 24 hours. RNA was isolated from cell pellets in batches of 6 using an RNeasy Plus Mini Kit (Cat #74134, Qiagen, Hilden, Germany). Acceptable RNA concentration and quality were verified with Nanodrop and Bioanalyzer measurements. GeneChip™ Human Transcriptome Array 2.0 assays were conducted according to manufacturer instructions in two batches using randomized samples to limit batch effects (Cat #902162, Applied Biosystems, Waltham, MA, USA). Applied Biosystems Transcriptomic Analysis Console (TAC) software (RRID: SCR_016519) was used to calculate fold changes in gene expression relative to the untreated control cells. Values were considered statistically significant for p values <0.05.

[1] = system: CD45+ immune cell segments of tumor biopsies; assay: GeoMx Digital Spatial Profiling of patient tumor biopsies; format: in vivo, human; conditions: post- vs pre-treatment
From the text: An Agilent technologies hybridization oven was used for baking tissue onto slides (Agilent, Santa Clara, CA, USA). A NanoString GeoMx® Digital Spatial Profiler (DSP) instrument (NanoString, Seattle, WA, USA) was used to scan slides, identify regions of interest (ROIs), and collect photocleavable barcodes according to manufacturer instructions. A custom panel was designed to include the following proteins: Ms IgG1, Ms IgG2a, Rb IgG, GAPDH, Histone H3, S6, Beta-2-microglobulin, CD31, CD45, Ki-67, ARG1, CD11b, CD11c, CD14, CD163, CD39, CD40, CD68, HLA-DR, GZMB, CD20, CD3, CD34, CD4, CD56, CD66b, CD8, Foxp3, Fibronectin, 4-1BB, B7-H3, CTLA4, GITR, IDO1, LAG3, OX40L, STING, Tim-3, VISTA, Bcl-2, ER-α, EpCAM, Her2, MART1, NY-ESO-1, PR, PTEN, PanCk, SMA, CD127, CD25, CD27, CD44, CD45RO, CD80, ICOS, PD-1, PD-L1, and PD-L2. An Eppendorf MasterCycler Gradient Thermal Cycler was used to generate the Illumina sequencing libraries from the photocleaved tags. (Eppendorf, Hamburg, Germany). An Agilent Fragment Analyzer (RRID: SCR_019417) was used for library size distribution analysis with a high-sensitivity NGS Fragment Kit (Cat #DNF-474-0500, Agilent, Santa Clara, CA, USA). qPCR for quantification was run using an Illumina-compatible KAPA Library Quantification Kits (ROX Low) (cat #KK4873) on an Applied Biosystems ViiA 7 Real-Time qPCR/PCR Thermal Cycler System (Applied Biosystems, San Francisco, CA, USA) and was analyzed using QuantStudio software (RRID: SCR_018712). Sequencing was performed using a NextSeq 500/550 High Output Kit v2.5 (75 Cycles) kit (cat #20024906) on an Illumina Sequencing NextSeq 550 System ([RRID: SCR_016381], Illumina, San Diego, CA, USA). The initial annotated dataset went through quality control (QC) to check if housekeeper genes and background (isotype) control molecules were themselves correlated with the predictors of interest. Every ROT was tested for raw sequencing reads (segments with <1000 raw reads were removed), % sequencing saturation (defined as [1-deduplicated reads/aligned reads]%, segments below ~50% were not analyzed), and nuclei count per segment (>100 nuclei per segment is generally recommended). Both immunoglobulins (IgGs) and housekeeper genes were highly correlated with one another. Signal to noise (SNR) ratio was calculated using background probes and all probes were detected above the background in at least one ROI. Finally, data were normalized based on background IgG expression and all normalization factors were well distributed. Data analysis and visualization were generated using R ([RRID: SCR_001905], R Development Core Team, 2020). Archival tumor specimens and peripheral blood samples were collected from patients enrolled in the Phase I study of Elraglusib (9-ING-41), a small molecule selective glycogen synthase kinase-3 beta (GSK-3b) inhibitor, as monotherapy or combined with cytotoxic regimens in patients with relapsed or refractory hematologic malignancies or solid tumors (Clinicaltrials.gov NCT03678883) who received treatment at the Lifespan Cancer Institute (Providence, RI, USA). The study was conducted in accordance with the Declaration of Helsinki and the International Conference on Harmonization Good Clinical Practice guidelines. The study protocol was approved by the Institutional Review Board (IRB) of Rhode Island Hospital under protocol number 1324888-120. The patients also participated in a Lifespan Cancer Institute research protocol designed to investigate molecular and genetic features of tumors and mechanisms of resistance (Rhode Island Hospital IRB protocol number 449060-38). All patients provided written informed consent.

[2] = tumor-infiltrating CD45+ segments, p=0.012
[3] = tumor-infiltrating CD45+ segments, p=1.6E-3
[4] = tumor-infiltrating CD45+ segments, p=3.1E-5

In the case of `Cn1cc(C2=C(c3coc4ccc(F)cc34)C(=O)NC2=O)c2cc3c(cc21)OCO3` [elraglusib, 3-(5-fluorobenzofuran-3-yl)-4-(5-methyl-5H-[1,3]dioxolo[4,5-f]indol-7-yl)-1H-pyrrole-2,5-dione], the “CCL3 gene expression fold change” value (TALL-104 cells; 24 hours vs DMSO) is reported as 1.52 FC, the “KIF7 gene expression fold change” value (TALL-104 cells; 24 hours vs DMSO) is reported as 1.56 FC and the “PTPN3 gene expression fold change” value (TALL-104 cells; 24 hours vs DMSO) is reported as −1.56 FC. The “differentially expressed genes post-treatment” value (TALL-104 cells; IC-50 concentration (1 μM), 24 hours, FC cutoff >1.5, <−1.5, p<0.05) was 64, the CD40 protein expression ([1]; CD45+ regions, all samples, p=0.020) was “decreased protein expression” and the CD11c protein expression ([1]; CD45+ regions, all samples, p=0.022) was “decreased protein expression”. For the same molecule, the PD-L2 protein expression ([1]; CD45+ regions, all samples, p=2.0E-9) was “decreased protein expression”, the VISTA protein expression ([1]; CD45+ regions, all samples, p=2.0E-24) was “decreased protein expression” and the PD-L1 protein expression ([1]; CD45+ regions, all samples, p=3.2E-13) was “decreased protein expression”. For the same molecule, the CD68 protein expression ([1]; CD45+ regions, all samples, p=3.8E-4) was “decreased protein expression”, the IDO1 protein expression ([1]; CD45+ regions, all samples, p=4.8E-6) was “decreased protein expression” and the LAG3 protein expression ([1]; CD45+ regions, all samples, p=5.1E-4) was “decreased protein expression”. The CD80 protein expression ([1]; CD45+ regions, all samples, p=5.4E-6) was “decreased protein expression”, the PD-1 protein expression ([1]; CD45+ regions, all samples, p=5.6E-9) was “decreased protein expression” and the CD11b protein expression ([1]; CD45+ regions, all samples, p=6.7E-3) was “decreased protein expression”. The CD66b protein expression ([1]; CD45+ regions, all samples, p=7.5E-15) was “decreased protein expression”, the B7-H3 protein expression [1, 2] was “higher protein expression” and the CD127 protein expression [1, 2] was “higher protein expression”. For the same molecule, the GITR protein expression ([1]; tumor-infiltrating CD45+ segments, p=0.021) was “lower protein expression”, the CD45RO protein expression ([1]; tumor-infiltrating CD45+ segments, p=1.1E-4) was “lower protein expression” and the PD-L1 protein expression ([1]; tumor-infiltrating CD45+ segments, p=1.1E-6) was “lower protein expression”. For the same molecule, the CD66b protein expression ([1]; tumor-infiltrating CD45+ segments, p=1.4E-13) was “lower protein expression”, the PTEN protein expression ([1]; tumor-infiltrating CD45+ segments, p=1.5E-11) was “lower protein expression” and the OX40L protein expression [1, 3] was “higher protein expression”. For the same molecule, the PD-1 protein expression [1, 3] was “lower protein expression”, the VISTA protein expression ([1]; tumor-infiltrating CD45+ segments, p=1.6E-14) was “lower protein expression” and the CD80 protein expression ([1]; tumor-infiltrating CD45+ segments, p=2.4E-3) was “lower protein expression”. The B2M protein expression ([1]; tumor-infiltrating CD45+ segments, p=2.5E-6) was “lower protein expression”, the Ki-67 protein expression ([1]; tumor-infiltrating CD45+ segments, p=2.7E-4) was “lower protein expression” and the CTLA4 protein expression [1, 4] was “higher protein expression”. The HLA-DR protein expression [1, 4] was “lower protein expression”, the CD44 protein expression ([1]; tumor-infiltrating CD45+ segments, p=3.1E-7) was “lower protein expression” and the CD34 protein expression ([1]; tumor-infiltrating CD45+ segments, p=3.3E-9) was “lower protein expression”. The CD68 protein expression ([1]; tumor-infiltrating CD45+ segments, p=5.8E-4) was “lower protein expression”, the IDO1 protein expression ([1]; tumor-infiltrating CD45+ segments, p=6.6E-4) was “lower protein expression” and the CD56 protein expression ([1]; tumor-infiltrating CD45+ segments, p=6.9E-3) was “lower protein expression”. For the same molecule, the PD-L2 protein expression ([1]; tumor-infiltrating CD45+ segments, p=7.6E-4) was “lower protein expression”, the ARG1 protein expression ([1]; tumor-infiltrating CD45+ segments, p=7.6E-5) was “lower protein expression” and the CD11c protein expression ([1]; tumor-infiltrating CD45+ segments, p=9.5E-3) was “lower protein expression”.
